How the values were obtained:
Type in all cases: cell-based, human
hESC-derived ECs [1] = experiment: Expansion of isolated hESC-derived ECs with or without SB431542 (phase 2)
Experimental: (§1) Embryoid bodies were generated and cultured in base hESC medium, supplemented with the cytokines as shown. Briefly, embryoid bodies were generated in hESC base medium without FGF-2. On the morning following generation of EBs (day 0), medium was supplemented with 20 ng/ml BMP4 (R&D) (removed at day 7); on day 1, medium was supplemented with 10 ng/ml ActivinA (R&D) (removed at day 4); on day 2, medium was supplemented with 8 ng/ml FGF-2 (Peprotech) (remained for the duration of culture); on day 4, EBs were transferred to adherent conditions on Matrigel™-coated plates and medium was supplemented with 25 ng/ml VEGF-A (Peprotech) (remained for the duration of culture); on day 7, SB431542 (Tocris) was added at 10 μM concentration and remained for indicated duration. Cultures were dissociated using 0.5% Trypsin/EDTA (Gibco) or Accutase (eBioscience). Absolute yield as well as ratio of input hESCs to differentiated ECs was calculated from the number of live cells recovered from differentiation cultures at days 0, 14 and 20. Purified ECs could be frozen and thawed in 10% DMSO with greater than 90% recovery.
(§2) ECs were isolated from differentiation cultures using Magnetic Activated Cell Sorting (MACS; Miltenyi Biotech) with an antibody against CD31 conjugated to magnetic microbeads. Alternatively, cells were isolated by virtue of the expression of GFP/YFP or a fluorophore conjugated antibody to human CD31 or VEGFR2 (BD) using a FACS AriaII (BD).
Cryosections were immunocytochemically stained as previous described (James et al., Dev. Biol. 295: 90-102 (2006)). Briefly, samples were permeabilized in PBST and blocked in 5% donkey serum. Samples were incubated for 2 hours in primary antibodies blocking solution, washed 3 times in PBS and incubated in CY3-conjugated secondary antibodies (Jackson Laboratories) for 1 hour. Following washing some sections were counterstained for nucleic acids by TO-PRO3 (Invitrogen) before mounting and imaging by confocal microscopy. Primary antibodies included CD31 (DAKO), CD34 (DAKO), Phospho-HistoneH3, Smooth Muscle Actin (SMA) (DAKO) and VE-cadherin (R&D). […]

hVPr-GFP hESCs = experiment: Endothelial (EC) differentiation of hVPr-GFP hESC embryoid bodies (phase 1)
Experimental: Human VPr-GFP hESCs were grown to confluence on Matrigel™ (BD Bioscience) and then incubated in 5 units/ml dispase (Gibco) until colonies were completely detached from the substrate. Human VPr-GFP EBs were washed and cultured in hESC medium on ultra low attachment plates (Corning) and cultured in the conditions described, with replacement of cytokine supplemented medium every 48 hours. Embryoid bodies were fixed in 4% paraformaldehyde and frozen for cryosectioning and staining.
as §1, with “on day 7, SB431542 (Tocris) was added at 10 μM concentration and remained for indicated” left out
as §2
Total RNA was prepared from cultured cells using the RNeasy™ extraction kit (Qiagen) and reverse transcribed using Superscript II reverse transcriptase (Invitrogen) according to the manufacturer's instructions. Relative quantitative PCR was performed on a 7500 Fast Real Time PCR System (Applied Biosystems) using either TaqMan PCR mix along with Id1 and β-actin primer pairs, or SYBR Green PCR mix (Applied Biosystems). […]
This EC reporter hESC line was also used to monitor the development of a chemically defined, serum-free methodology that could effectively augment vascular differentiation, consisting of two phases. […] Although these growth conditions promoted formation of hVPr-GFP^+ structures, the yield of dissociated hESC-derived ECs obtained by fluorescence-activated cell sorting (FACS) was low, and the few isolated ECs could not be expanded without the majority of derivatives assuming a non-EC phenotype. […]

hESC-derived ECs [2] = experiment: Absolute yield and ratio of input hESCs to differentiated ECs over phases 1 and 2
Experimental: as §1

[3] = test system: Id1-YFP hESC-derived CD31+ cells; experiment: Id1-YFP hESC-derived CD31+ cells expanded with and without the TGFβ-inhibitor, flow cytometry
Experimental: A bacterial artificial chromosome (BAC) was modified in order to place yellow fluorescent protein (YFP) under control of the endogenous human Id1 promoter locus. This reporter construct was electroporated into the H9 hESC line, selected for BAC integration using antibiotic resistance and subcloned. Clones were assessed and selected based on expression of YFP in Id1 hESC derivatives following spontaneous differentiation. […] To track Id1 expression in live hESC differentiation cultures, a stable BAC transgenic hESC-line expressing yellow fluorescent protein driven by the Id1-promoter (Id1-YFP) (Example 3 herein) was used (FIG. 3A-C). Differentiated ECs were isolated at day 14 from Id1-YFP cultures (FIG. 1d), sub-fractionating the CD31+ population into Id1-YFP high- and low-expressing cells, and these populations were serially expanded for seven days with and without the TGFβ-inhibitor (FIG. 3B).

[4] = ECs isolated at day 14, 5 days with vs without SB431542

Question: With `NC(=O)c1ccc(-c2nc(-c3ccc4c(c3)OCO4)c(-c3ccccn3)[nH]2)cc1` [SB431542, 4-[4-(1,3-benzodioxol-5-yl)-5-(2-pyridinyl)-1H-imidazol-2-yl]benzamide] as the compound, how does the “cell yield of isolated ECs” value (hESC-derived ECs [1]; ECs isolated at day 14, 5-day culture period with vs without SB431542) read?
Answer: yielded more cells

Question: And the “cell proliferation, percentage of Phospho-HistoneH3+ (PHH3) mitotic ECs” value (hESC-derived ECs [1]; [4])?
Answer: increased cell proliferation

Question: What about the “percentage of total population retaining α-SMA− CD31+ VEcadherin+ phenotype” value (hESC-derived ECs [1]; [4]) of the same compound?
Answer: higher percentage

Question: What about the “Oct3/4 and brachyury transcripts” value (hVPr-GFP hESCs; QPCR, normalized to ACTB, time course of differentiation) of the same compound?
Answer: accelerated the reduction

Question: And the “hVPr-GFP+ ECs when inhibitor is included from the onset of differentiation” value (hVPr-GFP hESCs; SB431542 from day 0)?
Answer: absence of hVPr-GFP+ ECs

Question: What about the “hVPr-GFP+CD31+ ECs” value (hVPr-GFP hESCs; beginning at 9 days) of the same compound?
Answer: significant increase

Question: And the “expression of SMA” value (hVPr-GFP hESCs; time course of differentiation)?
Answer: reducing expression of SMA

Question: And the “expansion in total number of vascular-committed hESC-derived ECs” value (hESC-derived ECs [2]; TGFβ inhibition in phase 1 and 2, 20 days, vs control culture conditions)?
Answer: 36 fold

Question: And the “population maintaining EC identity” value (hESC-derived ECs [2]; after phase 1 and phase 2 TGFβ-inhibition)?
Answer: 95%

Question: And the “ratio of ECs generated from every one hESC input” value (hESC-derived ECs [2]; over the course of 20 days)?
Answer: 7.4 ECs per input hESC

Question: What about the “mean fluorescence intensity of CD31” value ([3]; relative to unstimulated cells) of the same compound?
Answer: decreased

Question: What about the “percentage of the CD31+ population” value ([3]; relative to unstimulated cells) of the same compound?
Answer: increased

Question: What about the “Id1 expression (Id1-YFP)” value ([3]; seven days expansion with and without TGFβ-inhibitor) of the same compound?
Answer: up-regulation of Id1 expression
